Key:
Assay type in all cases: cell-based
[1] = test system: lymphoma cell line SU-DHL-4; test: Standard 6-day growth-death assay, SU-DHL-4; conditions: single agent or fixed 1:1 combination; for EC50 / IC50: Homo sapiens, 144 h; for EC50: average of n=2, read-out: dEC50; for IC50: average of n=2, read-out: gIC50; for Ymin-T0 / gIC100: average of n=2
Procedure: (§1) The majority cell lines were obtained from GSK BioCat group, American Type Culture Collection (ATCC), or the Deutsche Sammlung von Mikroorganismen and Zellbulturen (DSMZ). All cell lines were maintained in growth medium in T75 cm^2 flasks, incubated at 37° C. with 5% CO2 and split every 3 to 4 days. Growth media conditions and cell line information are detailed in Table 1. Cells were counted using the Vi-Cell Analyzer (Beckman Coulter ViCell) to obtain viable cell counts.
(§2) Optimal cell seeding density was determined for all cell lines by monitoring proliferation over a range of seeding densities in 384-well format and identifying the seeding density at which cells grew logarithmically throughout six days. 50 uL of cells per well were plated in 384-well plates at the optimal seeding density in preferred supplemented culture media. Three plates were prepared per cell line and incubated overnight at 37° C. in 5% CO2.
(§3) In these studies, lymphoma cell lines were treated with PRMT5 inhibitor, compound A and BCL-2 targeted inhibitor, ABT-199 single agent or in combination using a fixed 1:1 ratio of each inhibitor over a 20-point titration. For compound A single and fixed 1:1 ratio combination with ABT-199 cell proliferation assay, cells were treated in duplicate with a 20-point, two-fold dilution series of Compound A, ABT-199 (≥14 μM top dose) single or combo treatment, and ≤0.15% DMSO final concentration. Plates were incubated for six days at the conditions described above. Cell growth was measured using CellTiter-Glo (Promega) and luminescence signal was detected with a BioTek Synergy Neo microplate reader. A plate of untreated cells was read at the time of compound/biologic addition to determine the T0 value representing the starting number of cells. Data were fit with a four-parameter equation to generate a concentration response curve using Assay Client software.
(§4) Results were background corrected by subtraction of values from wells containing no cells, expressed as a percentage of the T0 value (value at time=0), and plotted against compound concentration. The T0 value was normalized to 100% and represents the number of cells present at the time of compound addition. The cellular response was determined for each compound using a 4- or 6-parameter curve fit of cell viability against concentration using Assay Client software. Growth IC50 (gIC50) values correspond to the concentration intersecting the mid-point of the growth window (between DMSO and T0 values). Growth IC100 (gIC100) values correspond to the concentration at which 100% growth inhibition is achieved, based on the growth window. The Ymin−T0 value, a measure of net population cell growth or death, is calculated by subtracting the T0 value (100%) from the Ymin value (%) that is determined from the fit of the concentration response curve. Death EC50 (dEC50) values correspond to the concentration at which 50% net cell death is observed.
(§5) Individual curves were quality checked for three criteria: outlier data points, cell growth (population doubling ≥1.5), and proper curve fitting. […] Individual curves were QC checked for outlier data points, cell growth (population doubling ≥1.5), and proper curve fitting. Obvious outlier data points were omitted only as needed to ensure proper curve fit.
(§6) For fixed ratio screening, combination activity was assessed by the fold change in gIC50 compared to the 2 single agent curves by dividing the compound ratio as necessary. Combinations showing >3-fold and >5-fold change from single agent are described as below: • Fold changes ≥5 are considered to represent strong synergy. • Fold changes between 3.0 and 4.9 are considered to represent weak synergy. • Fold changes <3 are considered to represent no synergy.

[2] = test system: lymphoma cell line WSU-DLCL2; test: Standard 6-day growth-death assay, WSU-DLCL2; conditions: single agent or fixed 1:1 combination; for EC50 / IC50: Homo sapiens, WSUDLCL2, 144 h; for EC50: average of n=2, read-out: dEC50; for IC50: average of n=2, read-out: gIC50; for Ymin-T0 / gIC100: average of n=2
Procedure: as §1, §2, §3, §4, §5, §6

[3] = test system: lymphoma cell line WSU-FSCCL; test: Standard 6-day growth-death assay, WSU-FSCCL; conditions: single agent or fixed 1:1 combination; for EC50 / IC50: 144 h; for EC50: average of n=2, read-out: dEC50; for IC50: average of n=2, read-out: gIC50; for Ymin-T0 / gIC100: average of n=2
Procedure: as §1, §2, §3, §4, §5, §6

[4] = test system: Z-138; test: Standard 6-day growth-death assay, Z-138 as control for Compound A; conditions: single agent or fixed 1:1 combination; for EC50 / IC50: Homo sapiens, 144 h; for EC50: average of n=2, read-out: dEC50; for IC50: average of n=2, read-out: gIC50; for Ymin-T0 / gIC100: average of n=2
Procedure: as §1, §2, §3, §4, §5, §6

[5] = test system: lymphoma cell line JV-M2*; test: Standard 6-day growth-death assay, JV-M2*; conditions: single agent or fixed 1:1 combination; for IC50: average of n=2, read-out: gIC50; for Ymin-T0 / gIC100: average of n=2
Procedure: as §1, §2, §3, §4, §5, §6

[6] = test system: lymphoma cell line DB; test: Standard 6-day growth-death assay, DB; conditions: single agent or fixed 1:1 combination; for EC50 / IC50: 144 h; for EC50: average of n=2, read-out: dEC50; for IC50: average of n=2, read-out: gIC50; for Ymin-T0 / gIC100: average of n=2
Procedure: as §1, §2, §3, §4, §5, §6

[7] = test system: lymphoma cell line DOHH-2; test: Standard 6-day growth-death assay, DOHH-2; conditions: single agent or fixed 1:1 combination; for EC50 / IC50: Homo sapiens, 144 h; for EC50: average of n=2, read-out: dEC50; for IC50: average of n=2, read-out: gIC50; for Ymin-T0 / gIC100: average of n=2
Procedure: as §1, §2, §3, §4, §5, §6

[8] = test system: lymphoma cell line NU-DUL-1; test: Standard 6-day growth-death assay, NU-DUL-1; conditions: single agent or fixed 1:1 combination; for IC50: average of n=2, read-out: gIC50; for Ymin-T0 / gIC100: average of n=2
Procedure: as §1, §2, §3, §4, §5, §6

[9] = test system: lymphoma cell line U-2932; test: Standard 6-day growth-death assay, U-2932; conditions: single agent or fixed 1:1 combination; for EC50 / IC50: Homo sapiens, U2932, 144 h; for EC50: average of n=2, read-out: dEC50; for IC50: average of n=2, read-out: gIC50; for Ymin-T0 / gIC100: average of n=2
Procedure: as §1, §2, §3, §4, §5, §6

[10] = test system: lymphoma cell line OCI-LY3; test: Standard 6-day growth-death assay, OCI-LY3; conditions: single agent or fixed 1:1 combination; for EC50 / IC50: Homo sapiens, 144 h; for EC50: average of n=2, read-out: dEC50; for IC50: average of n=2, read-out: gIC50; for Ymin-T0 / gIC100: average of n=2
Procedure: as §1, §2, §3, §4, §5, §6

SMILES | EC50 [1] | IC50 [1] | Ymin-T0 [1] | gIC100 [1] | EC50 [2] | IC50 [2] | Ymin-T0 [2] | gIC100 [2] | EC50 [3] | IC50 [3] | Ymin-T0 [3] | gIC100 [3] | EC50 [4] | IC50 [4] | Ymin-T0 [4] | gIC100 [4] | IC50 ([5]; Homo sapiens, JVM-2, 144 h) | Ymin-T0 [5] | gIC100 [5] | EC50 [6] | further results
CC1(C)CCC(CN2CCN(c3ccc(C(=O)NS(=O)(=O)c4ccc(NCC5CCOCC5)c([N+](=O)[O-])c4)c(Oc4cnc5[nH]ccc5c4)c3)CC2)=C(c2ccc(Cl)cc2)C1 [ABT-199, venetoclax, reference compound] | 13000 nM | 673 nM | 316% | 12.485 µM | > 14700 nM | 6920 nM | 3182% | > 14.7 µM | 14600 nM | 238 nM | −49% | 10.53 µM | 3120 nM | 14 nM | −78% | 1119 nM | 27 nM | −63% | 1607 nM | > 14700 nM | EC50 ([5]; Homo sapiens, JVM-2, 144 h, average of n=2, read-out: dEC50): 9080 nM; IC50 [6]: 2480 nM; Ymin-T0 [6]: 449%; gIC100 [6]: > 14.7 µM; EC50 [7]: 1820 nM; IC50 [7]: 51 nM; Ymin-T0 [7]: −69%; gIC100 [7]: 2897 nM; IC50 ([8]; Homo sapiens, 144 h): 3020 nM; Ymin-T0 [8]: −45%; gIC100 [8]: 4.832 µM; EC50 [9]: 3070 nM; IC50 [9]: 113 nM; Ymin-T0 [9]: −92%; gIC100 [9]: 1366 nM; EC50 [10]: 7510 nM; IC50 [10]: 1470 nM; Ymin-T0 [10]: −76%; gIC100 [10]: 7.157 µM
O=C(NC[C@H](O)CN1CCc2ccccc2C1)c1ccnc(NC2CCC2)c1 [Compound A] | > 14700 nM | 743 nM | 1083% | 14.663 µM | > 14700 nM | 1160 nM | 2474% | > 14.7 µM | > 14700 nM | 388 nM | 224% | 14.663 µM | 794 nM | 38 nM | −93.1% | 453 nM | 139 nM | −14% | 2211 nM | > 14700 nM | IC50 [6]: 862 nM; Ymin-T0 [6]: 194%; gIC100 [6]: > 14.7 µM; EC50 [7]: 1940 nM; IC50 [7]: 41 nM; Ymin-T0 [7]: −100%; gIC100 [7]: 1474 nM; EC50 ([8]; Homo sapiens, 144 h, average of n=2, read-out: dEC50): > 14700 nM; IC50 ([8]; Homo sapiens, 144 h): 3730 nM; Ymin-T0 [8]: −11%; gIC100 [8]: 12.659 µM; EC50 [9]: 3070 nM; IC50 [9]: 281 nM; Ymin-T0 [9]: −88%; gIC100 [9]: 1542 nM; EC50 [10]: > 14700 nM; IC50 [10]: 1960 nM; Ymin-T0 [10]: 488%; gIC100 [10]: 14.663 µM
